Measurements from patent US20220370467A1, “USING OF A PPAR-DELTA AGONIST IN THE TREATMENT OF KIDNEY DISEASE” (Reneo Pharmaceuticals, Inc., priority 2019, published 2022).

Assays:
Type in all cases: cell-based
[1] = molecular target: T1, hPPARδ (Homo sapiens, UniProt Q03181); assay: in vitro assay on human PPAR subtypes (transactivation): hPPARδ
T1 construct: (PPARδ: aa 128—C-terminus); expressed in transfected cells; host or cells: HEK293
T1 sequence (Q03181 128-441 limits assumed): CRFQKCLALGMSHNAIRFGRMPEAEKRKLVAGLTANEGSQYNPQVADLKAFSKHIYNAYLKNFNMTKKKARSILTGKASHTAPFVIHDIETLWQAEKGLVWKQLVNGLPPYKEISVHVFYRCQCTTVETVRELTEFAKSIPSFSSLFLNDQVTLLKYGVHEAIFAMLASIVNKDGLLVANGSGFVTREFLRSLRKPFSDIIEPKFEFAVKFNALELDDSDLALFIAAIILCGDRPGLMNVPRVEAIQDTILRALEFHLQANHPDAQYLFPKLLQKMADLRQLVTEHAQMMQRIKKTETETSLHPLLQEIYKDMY
Excerpt: (§1) “Activation” here is defined as the abovementioned downstream response, which in the case of PPAR's is gene transcription. Gene transcription may be measured indirectly as downstream production of proteins reflective of the activation of the particular PPAR subtype under study. Alternatively, an artificial reporter construct may be employed to study the activation of the individual PPAR's expressed in cells. The ligand binding domain of the particular receptor to be studied may be fused to the DNA binding domain of a transcription factor, which produces convenient laboratory readouts, such as the yeast GAL4 transcription factor DNA binding domain. The fusion protein may be transfected into a laboratory cell line along with a Gal4 enhancer, which effects the expression of the luciferase protein. When such a system is transfected into a laboratory cell line, binding of a receptor agonist to the fusion protein will result in light emission.
The PPAR transient transactivation assay may be based on transient transfection into human HEK293 cells of two plasmids encoding a chimeric test protein and a reporter protein respectively. The chimeric test protein may be a fusion of the DNA binding domain (DBD) from the yeast GAL4 transcription factor to the ligand binding domain (LBD) of the human PPAR proteins. The PPAR-LBD moiety harbored in addition to the ligand binding pocket also has the native activation domain, allowing the fusion protein to function as a PPAR ligand dependent transcription factor. The GAL4 DBD will direct the chimeric protein to bind only to Gal4 enhancers (of which none existed in HEK293 cells). The reporter plasmid contained a Gal4 enhancer driving the expression of the firefly luciferase protein. After transfection, HEK293 cells expressed the GAL4-DBD-PPAR-LBD fusion protein. The fusion protein will in turn bind to the Gal4 enhancer controlling the luciferase expression, and do nothing in the absence of ligand. […] The amount of luciferase protein is measured by light emission after addition of the appropriate substrate. […]

[2] = molecular target: T2, hPPARα (Homo sapiens, UniProt Q07869); assay: in vitro assay on human PPAR subtypes (transactivation): hPPARα
T2 construct: expressed in transfected cells; host or cells: HEK293
T2 sequence (Q07869 239-466 limits assumed): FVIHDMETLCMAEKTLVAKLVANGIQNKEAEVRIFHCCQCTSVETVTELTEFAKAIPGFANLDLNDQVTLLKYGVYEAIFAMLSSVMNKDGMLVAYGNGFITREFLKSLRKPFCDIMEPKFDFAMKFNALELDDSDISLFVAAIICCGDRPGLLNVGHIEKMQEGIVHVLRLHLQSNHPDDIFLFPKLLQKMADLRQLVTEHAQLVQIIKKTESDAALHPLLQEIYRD
Excerpt: as §1
(§2) The PPAR transient transactivation assay may be based on transient transfection into human HEK293 cells of two plasmids encoding a chimeric test protein and a reporter protein respectively. […] The amount of luciferase protein is measured by light emission after addition of the appropriate substrate. […]

[3] = molecular target: T3, hPPARγ (Homo sapiens, UniProt P37231); assay: in vitro assay on human PPAR subtypes (transactivation): hPPARγ
T3 construct: expressed in transfected cells; host or cells: HEK293
T3 sequence (P37231 238-503 limits assumed): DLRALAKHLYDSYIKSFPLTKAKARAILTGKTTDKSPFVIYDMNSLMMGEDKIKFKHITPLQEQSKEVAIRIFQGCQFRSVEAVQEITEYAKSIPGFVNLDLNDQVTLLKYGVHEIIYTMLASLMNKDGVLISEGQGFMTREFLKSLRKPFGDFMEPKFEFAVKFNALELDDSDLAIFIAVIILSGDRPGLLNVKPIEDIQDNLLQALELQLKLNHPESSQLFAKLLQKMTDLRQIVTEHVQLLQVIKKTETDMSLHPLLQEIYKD
Excerpt: as §1, §2

Compound: Cc1cc(OC/C=C(/c2ccc(F)cc2)c2ccc(C#CCN3CCOCC3)cc2)ccc1OCC(=O)O [Compound 1, (E)-[4-[3-(4-Fluorophenyl)-3-[4-[3-(morpholin-4-yl)propynyl]phenyl]allyloxy]-2-methyl-phenoxy]acetic acid]
- agonist type on PPARδ [1]: full agonist
- selectivity for PPARδ over PPARα ([1]; versus PPARα): at least 100 fold
- selectivity for PPARδ over PPARγ ([1]; versus PPARγ): at least 400 fold
- agonist type on PPARα [2]: partial agonist
- activity on PPARα in transactivation assays ([2]; in some cases): negligible activity
- agonist type on PPARγ [3]: partial agonist
- activity on PPARγ in transactivation assays ([3]; in some cases): negligible activity
